Among the test systems are DMS 114 small cell lung; HOP-18 NSCLC; M19-MEL melanoma; DMS 273 small cell lung; XF 498 CNS; RXF-631 renal; P388 leukemia; P388/ADR leukemia; SN12K1 renal.
What all share (experiment): NCI tumour cell line growth inhibition, 48 h

The structures appear in SMILES notation.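 Assay format: 96-well plates, 48-hour exposure. TGI denotes the concentration required for complete inhibition of growth.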 A value given as a limit tells only on which side of the number the result lay.

With `O=C1CCCC/C1=C\c1ccc(Cl)c(Cl)c1`, the TGI stood at 41.1 µM with DMS 114 small cell lung, 51.7 µM with HOP-18 NSCLC, 40.3 µM in the assay with M19-MEL melanoma and 38.5 µM in the assay on DMS 273 small cell lung.
As for `O=C(c1ccccc1)c1c(CC(O)c2ccncc2)n(C(=O)c2ccccc2)c2ccccc12` (stereo not drawn), the TGI in the assay on DMS 114 small cell lung turned out to be 40.2 µM; in the assay on M19-MEL melanoma it was 33 µM; with DMS 273 small cell lung, 37.1 µM.
As to `O=C1c2ccccc2N2OC3(N4CCCC4)CCCCC3C12c1ccccc1` (stereo not drawn), the TGI in the assay on DMS 114 small cell lung was 28.4 µM; in the assay with HOP-18 NSCLC, over 100 µM; with M19-MEL melanoma, 22 µM; in the assay on DMS 273 small cell lung it was 30.9 µM; with XF 498 CNS, 41.1 µM.
In the case of `COC(=O)C(=O)Cc1nc2ccccc2o1`, the TGI in the assay on DMS 114 small cell lung, with M19-MEL melanoma, in the assay on RXF-631 renal and in the assay on XF 498 CNS was over 100 µM each time.
As to `CCCCCCCCCCCC[N+](CCCCCCCCCCCC)=C1SCCS1`, the TGI in the assay on DMS 114 small cell lung is 3.58 µM; in the assay with HOP-18 NSCLC, 30 µM; in the assay with M19-MEL melanoma, 8.43 µM; with DMS 273 small cell lung, 11.4 µM; with RXF-631 renal, 52.2 µM.
Turning to `O=C1NC2CCCCCC2C12CCCCC2` (stereo not drawn), the TGI with DMS 114 small cell lung, in the assay on M19-MEL melanoma, in the assay on RXF-631 renal and with XF 498 CNS was over 100 µM in each case.
With `CCOC(=O)c1c[nH]c2ccc3c(c2c1=O)S(=O)(=O)CC3` (tested in a mixture with another compound), the TGI in the assay with P388 leukemia, in the assay with P388/ADR leukemia, in the assay with DMS 114 small cell lung, in the assay with HOP-18 NSCLC, in the assay on SN12K1 renal and with M19-MEL melanoma was over 100 µM throughout. The TGI in the assay on DMS 273 small cell lung and in the assay on XF 498 CNS was over 100 µM throughout.

Source of the values: PubChem BioAssay (NCI).
